According to patent US20230233736A1, “ANTIMICROBIAL FORMULATIONS COMPRISING SILICONE” (AMICOAT AS, priority 2020, published 2023):
≈ marks a conversion by molar mass, not a printed value. Where a SMILES comes first, the peptide text is derived from it. The star is where a group is joined. NHPhenethyl = c1ccc(CCN*)cc1

What was measured:
[1] = system: Staphylococcus aureus, strain ATCC 25923; settings: for MIC: S. aureus ATCC 25923; for S. aureus: Table 5, strain ATCC 25923
trypsin = assay: in vitro; assay type: in vitro ADME; settings: pH 8.6
Protocol: Each peptide was dissolved in a 0.1 M NH4HCO3 buffer (pH 6.5) to yield a final peptide concentration of 1 mg/ml. A trypsin solution was prepared by dissolving 1 mg of trypsin in 50 ml 0.1 M NH4HCO3 buffer (pH 8.2). For the stability determination, 250 μl freshly made trypsin solution and 250 μl peptide solution were incubated in 2 ml of 0.1 M NH4HCO3 buffer (pH 8.6) at 37° C. on a rocking table. Aliquots of 0.5 ml were sampled at different time intervals, diluted with 0.5 ml water:acetonitrile (60:40 v/v) containing 1% TFA and analysed by RP-HPLC as described above. Samples without trypsin addition taken at 0 h and after 20 h at 37° C. were used as negative controls. Integration of the peak area at 254 nm for samples taken during the first 5 hours of the assay was used to generate the […].

[2] = system: Methicillin resistant Staphylococcus epidermidis (MRSE) strain ATCC 27626; settings: for MIC: MRSE ATCC 27626; for MRSE: Table 5, strain ATCC 27626
[3] = system: Methicillin resistant Staphylococcus aureus (MRSA) strain ATCC 33591; settings: for MIC: MRSA ATCC 33591; for MRSA: Table 5, strain ATCC 33591
C. albicans = assay: Antimicrobial assay, Table 5; assay type: cell-based
E. coli = assay: Antimicrobial assay, Table 5; assay type: cell-based
P. aeruginosa = assay: Antimicrobial assay, Table 5; assay type: cell-based
S. pyogenes = assay: Antimicrobial assay, Table 5; assay type: cell-based
[4] = system: Trichophyton mentagrophytes; assay: MIC microbroth dilution (CLSI); assay type: cell-based; settings: G.R. Micro collection
Candida tropicalis = assay: MIC microbroth dilution (CLSI); assay type: cell-based; settings: ATCC750 - reference strain
Streptococcus pyogenes = assay type: cell-based; settings: Macrolide (M-type) resistance clinical isolate
Source text: (§1) Cation-adjusted Mueller-Hinton broth (Oxoid Ltd., Basingstoke, UK and Trek Diagnostic Systems Ltd., East Grinstead, UK) (supplemented with 5% laked horse blood for Streptococcus spp., Corynebacterium jeikeium and Listeria monocytogenes) was used for aerobic bacteria, with an initial inoculum of approximately 10^5 colony-forming units (CFU)/m L.

Eggerthella lenta = assay: MIC microbroth dilution (CLSI); assay type: cell-based; design: unit not given beside the values; settings: ATCC 43055; SBB
Acinetobacter baumanii = assay: MIC microbroth dilution (CLSI); assay type: cell-based; design: unit not given beside the values; settings: antibiotic-susceptible clinical isolate
Source text: as §1

Clostridium difficile = assay: MIC microbroth dilution (CLSI); assay type: cell-based; design: unit not given beside the values; settings: antibiotic-susceptible clinical isolate
Cryptococcus neoformans = assay: MIC microbroth dilution (CLSI); assay type: cell-based; settings: G.R. Micro collection
Aspergillus niger = assay: MIC microbroth dilution (CLSI); assay type: cell-based; settings: G.R. Micro collection
Microsporum canis = assay: MIC microbroth dilution (CLSI); assay type: cell-based; settings: G.R. Micro collection
[5] = system: Trichophyton interdigitale; assay: MIC microbroth dilution (CLSI); assay type: cell-based; settings: G.R. Micro collection
Listeria monocytogenes = assay: MIC microbroth dilution (CLSI); assay type: cell-based; settings: antibiotic-susceptible clinical isolate
Source text: as §1

[6] = system: Stenotrophomonas maltophilia; assay: MIC microbroth dilution (CLSI); assay type: cell-based; settings: antibiotic-susceptible clinical isolate
Source text: as §1

[7] = system: Staphylococcus saprophyticus; assay: MIC microbroth dilution (CLSI); assay type: cell-based; settings: antibiotic susceptible clinical isolate
Source text: as §1

Shigella sp = assay: MIC microbroth dilution (CLSI); assay type: cell-based; settings: antibiotic-susceptible clinical isolate
Source text: as §1

Enterococcus gallinarum = assay: MIC microbroth dilution (CLSI); assay type: cell-based; settings: vancomycin-resistant (VanC) clinical isolate
Source text: as §1

Salmonella sp = assay: MIC microbroth dilution (CLSI); assay type: cell-based
Source text: as §1

Bacteroides fragilis = assay: MIC microbroth dilution (CLSI); assay type: cell-based; design: unit not given beside the values; settings: ATCC 25285; SBB

| Structure (SMILES) | MIC [2] [µM] | MIC [3] [µM] | S. aureus [1] [mg/L] | C. albicans (C. albicans) [mg/L] | MRSE [2] [mg/L] | S. pyogenes (S. pyogenes) [mg/L] | MRSA [3] [mg/L] | further results |
| --- | --- | --- | --- | --- | --- | --- | --- | --- |
| N=C(N)NCCC[C@H](NC(=O)C(Cc1ccc(-c2ccc(-c3ccccc3)cc2)cc1)NC(=O)[C@@H](N)CCCNC(=N)N)C(=O)NCCc1ccccc1 (stereo partly shown) [Compound 5] | 3 (≈ 2.2 µg/mL) | 3 (≈ 2.2 µg/mL) |  |  |  |  |  | MIC [1]: 5 µM (≈ 3.66 µg/mL); half-life at 0.1 mg/ml (trypsin): > 1440 min |
| CCCCCCCCCCCCCCCCNC(=O)[C@H](CCCNC(=N)N)NC(=O)[C@H](Cc1c(C(C)(C)C)[nH]c2c(C(C)(C)C)cc(C(C)(C)C)cc12)NC(=O)[C@@H](N)CCCNC(=N)N [Compound 11] |  |  | 5 | >100 | 4 | 6 | 4 | E. coli (E. coli): >100 mg/L; P. aeruginosa (P. aeruginosa): >100 mg/L |
| N=C(N)NCCCC(N)C(=O)NC(Cc1ccc(-c2ccc3ccccc3c2)cc1)C(=O)NC(CCCNC(=N)N)C(=O)NCCc1ccccc1 (stereo not shown) [Compound 1] | <3 | <3 |  |  |  |  |  | MIC [1]: 4 µM (≈ 2.83 µg/mL); MIC [4]: 16; MIC (Candida tropicalis): 2; MIC (Streptococcus pyogenes): 32; MIC (Eggerthella lenta): 16; MIC (Acinetobacter baumanii): 64; MIC (Clostridium difficile): 32; MIC (Cryptococcus neoformans): 4; MIC (Aspergillus niger): 4; MIC (Microsporum canis): 8; MIC [5]: 8; MIC (Listeria monocytogenes): 32; MIC [6]: 64; MIC [7]: 1; MIC (Shigella sp): 32; MIC (Enterococcus gallinarum): 4; MIC (Salmonella sp; antibiotic-susceptible clinical isolate): 16; MIC (Salmonella sp; multi-drug resistant clinical isolate): 16; MIC (Bacteroides fragilis): 64 |
| CCCNC(=O)[C@H](CCCNC(=N)N)NC(=O)[C@H](Cc1c(C(C)(C)C)[nH]c2c(C(C)(C)C)cc(C(C)(C)C)cc12)NC(=O)[C@@H](N)CCCNC(=N)N [Compound 10] |  |  | 2 | 10 | <2 | 2 | 3 |  |
| CC(C)(C)c1cc(C(C)(C)C)c2[nH]c(C(C)(C)C)c(C[C@H](NC(=O)[C@@H](N)CCCNC(=N)N)C(=O)N[C@@H](CCCNC(=N)N)C(=O)NC3CCCC3)c2c1 [Compound 14] |  |  | <2 | 10 | <2 | 2 | >15 |  |
| N=C(N)NCCC[C@H](NC(=O)[C@H](Cc1c[nH]c2ccccc12)NC(=O)[C@@H](N)CCCNC(=N)N)C(=O)NCCc1ccccc1 [Compound 6, reference compound] (H-Arg-Trp-Arg-NHPhenethyl) | 81 (≈ 50.2 µg/mL) | 97 (≈ 60.1 µg/mL) |  |  |  |  |  | MIC [1]: 145 µM (≈ 89.9 µg/mL) |
| CCCCNC(=O)[C@H](CCCNC(=N)N)NC(=O)[C@H](Cc1c(C(C)(C)C)[nH]c2c(C(C)(C)C)cc(C(C)(C)C)cc12)NC(=O)[C@@H](N)CCCNC(=N)N [Compound 9] |  |  | 2 | 10 | <2 | 2 | 3 |  |
| N=C(N)NCCC[C@H](NC(=O)C(Cc1ccc(-c2cccc3ccccc23)cc1)NC(=O)[C@@H](N)CCCNC(=N)N)C(=O)NCCc1ccccc1 (stereo partly shown) [Compound 3] |  |  |  |  |  |  |  | half-life at 0.1 mg/ml (trypsin): 1200 min |
| CC(C)CNC(=O)[C@H](CCCNC(=N)N)NC(=O)[C@H](Cc1c(C(C)(C)C)[nH]c2c(C(C)(C)C)cc(C(C)(C)C)cc12)NC(=O)[C@@H](N)CCCNC(=N)N [Compound 12] |  |  | <2 | 10 | 2 | 2 | 3 |  |
| CC(C)(C)c1cc(C(C)(C)C)c2[nH]c(C(C)(C)C)c(C[C@H](NC(=O)[C@@H](N)CCCCN)C(=O)N[C@@H](CCCCN)C(=O)NCCc3ccccc3)c2c1 [Compound 4] | <2 | 3 (≈ 2.2 µg/mL) |  |  |  |  |  | half-life at 0.1 mg/ml (trypsin): > 1440 min |
| CC(C)(C)c1cc(C(C)(C)C)c2[nH]c(C(C)(C)C)c(C[C@H](NC(=O)[C@@H](N)CCCNC(=N)N)C(=O)N[C@@H](CCCNC(=N)N)C(=O)NC3CCCCC3)c2c1 [Compound 13] |  |  | <2 | 10 | 2 | <2 | 2 |  |
